Assay results: patent US11447525B2 (NIIGATA UNIVERSITY, priority 2018, dated 2022)
Non-standard residues stand in square brackets, D forms with d. Residues, ends and D or L forms follow the SMILES beside them. No end group written: not given here. *: point of attachment. 5FAM = O=C1OC2(c3ccc(O)cc3Oc3cc(O)ccc32)c2ccc(C(=O)*)cc21; NMeR = CN[C@@H](CCCNC(=N)N)C(=O)O

Legend:
[1] = tested on: human pancreatic cancer growth and progression mouse model (subcutaneous and intraperitoneal human pancreatic cancer cell-transplanted); assay: Selective absorption into tissues of human pancreatic cancer growth and progression mouse model, fluorescence signal (Test Examples 3, 4, Reference Example 2); assay type: in vivo, Balb/c nu/nu mouse; settings: 200 μg intravenously, 30 minutes after injection
Experimental: Subsequently, 200 μg of each of the fluorescent labeled peptides prepared above in “1.” was injected intravenously into a human pancreatic cancer growth and progression mouse model (Balb/c nu/nu mouse, subcutaneous and intraperitoneal human pancreatic cancer cell-transplanted model). The pharmacokinetics of the peptide 30 minutes after the intravenous injection were then analyzed by tissue analysis of the freshly dissected specimen of the administered mouse, with the absorption quantified by detection of the fluorescence signal. […] In FIG. 9A, “sc tumor” is an abbreviation for “subcutaneous tumor”. In FIG. 9B, “abd tumor” is an abbreviation for “abdominal tumor”, indicating a tumor formed intraperitoneally. Further, “br” indicates the brain, “hr” indicates the heart, “kd” indicates the kidney, and “liv” indicates the liver. Furthermore, “liv. meta” is an abbreviation for “liver metastatic tumor”, and describes a tumor that has metastasized to the liver. Moreover, “panc” indicates the pancreas, and “sp” indicates the spleen. These same abbreviations are also used in subsequent figures. Furthermore, the term “untreated” in FIG. 9A indicates tissues resected from a mouse that was not administered with any fluorescent labeled peptide.
Specifically, first, either 27 μg or 200 μg of fluorescein was injected intravenously into a human pancreatic cancer growth and progression mouse model (Balb/c nu/nu mouse, subcutaneous and intraperitoneal human pancreatic cancer cell-transplanted model). The pharmacokinetics of the FLC 30 minutes after the intravenous injection were then analyzed by tissue analysis of the freshly dissected specimen of the administered mouse, with the absorption quantified by detection of the fluorescence signal.

[2] = Degradation test by human blood plasma, MALDI-TOFMS analysis; assay type: in vitro ADME; settings: for degradation products observed: within 120 minutes of starting the test; for proportion of peak area relative to the total peak area in the MALDI-TOFMS analysis / proportion of each peptide when the peak area for the two or more peptides is deemed to be 100%: LL peptide added to 50% by mass human blood plasma
Experimental: Specifically, a peptide composed of the amino acid sequence represented by SEQ ID NO: 1 (hereafter sometimes referred to as “PCPP11”) was added to human blood plasma having a concentration of 50% by mass, the mixture was sampled immediately after starting the degradation test (after 0 minutes), and then after 5 minutes, after 10 minutes, after 20 minutes, after 30 minutes, after 60 minutes and after 120 minutes, and the samples were analyzed by MALDI-TOFMS (Matrix Assisted Laser Desorption/Ionization-Time Of Flight Mass Spectrometry). In Table 2, “UK” is an abbreviation for “unknown”. Further, the No. shown for each peptide in Table 2 corresponds with the numerical value recorded on the peaks of the graphs shown in FIG. 1.
Each of the peptides described above was added to human blood plasma having a concentration of 50% by mass, the resulting mixture was sampled immediately after starting the degradation test (after 0 minutes), and then after 5 minutes, after 10 minutes, after 20 minutes, after 30 minutes, after 60 minutes and after 120 minutes, and the samples were analyzed by MALDI-TOFMS. The results are shown in FIGS. 2 to 6 and Tables 4 to 6 shown below. Furthermore, the data for the degradation test by human blood plasma using PCPP11 from Reference Example 1 and the degradation tests by human blood plasma using each of the above peptides are collated in FIG. 7 and Table 7. The SEQ ID NO listed for the FAM-labeled peptide represents the SEQ ID NO of the peptide portion. Further, the No. shown for each peptide in Tables 4 to 6 corresponds with the numerical value recorded on the peaks of the graphs shown in FIGS. 2 to 6. In each table, in those cases where the numerical values are shown separated into an upper row and a lower row, the upper row value indicates the proportion (%) of peak area for two or more peptides relative to the total peak area in the MALDI-TOFMS analysis. On the other hand, the lower row value indicates the proportion (%) of each peptide when the peak area for the two or more peptides is deemed to be 100%. Moreover, for example, for the peptide No. 9 shown in Table 4, the left-side “70.0%” indicates the proportion (%) of the peptide No. 9 when the total peak area for the peptides No. 9 to 11 is deemed to be 100%, whereas the right-side “65%” indicates the proportion (%) of the peptide No. 9 relative to the total peak area in the MALDI-TOFMS analysis. This system is also used in the following tables.

[3] = tested on: pancreatic cancer cells (BxPC3, PK-8, AsPC1); assay: Accumulation of FLC-labeled peptides in cells (Test Example 8); assay type: cell-based, human; settings: 2 μM, 37° C., 2 hours
Experimental: Tests were conducted to confirm the accumulation of various peptides into each of the cells shown below in Table 13. Further, the peptides shown below in Table 14 were used.
Each peptide was added to each of the cells shown in Table 13 in an amount sufficient to achieve a final concentration in the medium of 2 μM, and following cultivation of the cells at 37° C. for 2 hours, the sample was washed 3 times with a medium containing no peptide to remove any peptide within the medium. Subsequently, the incorporation of each of the peptides into each of the cells was evaluated visually using an inverted fluorescence microscope. Prior to the microscopic examination, the culture supernatant to which the peptide had been added was removed, and following washing three times with 1×PBS (−), a trypsin treatment was conducted to remove the adherent cells, and the resultant was immediately transferred into a new 96-well plate and once again suspended in fresh culture solution before the microscopic examination was performed. In FIG. 23, “pep(−)” indicates the control cells to which no peptide was administered, and “single PCPP11” indicates cells to which FLC (fluorescein)-PCPP11 had been added. Further, “mal” indicates a maleimide group, with the peptide and the FLC bonded together by forming a covalent bond between the thiol group (—SH) of a cysteine residue and a maleimide group introduced into the FLC.

[4] = 50% by mass human blood plasma, read-out: degradation resistance (proportion of the peptide retained without degradation)
[5] = 50% by mass human blood plasma, 20 min, read-out: degradation resistance (proportion of the peptide retained without degradation)
[6] = 50% by mass human blood plasma, 30 min, read-out: degradation resistance (proportion of the peptide retained without degradation)
[7] = 50% by mass human blood plasma, 60 min, read-out: degradation resistance (proportion of the peptide retained without degradation)
[8] = 50% by mass human blood plasma, 120 min, read-out: degradation resistance (proportion of the peptide retained without degradation)
[9] = 50% by mass human blood plasma, Start

C[C@@H](O)[C@H](NC(=O)[C@@H](NC(=O)[C@@H]1CCCN1C(=O)[C@H](CCCNC(=N)N)NC(=O)[C@H](CCCNC(=N)N)NC(=O)CNC(=O)[C@@H]1CCCN1C(=O)[C@H](CCCCN)NC(=O)[C@H](Cc1c[nH]cn1)NC(=O)[C@H](Cc1c[nH]c2ccccc12)NC(=O)[C@@H](NC(=O)[C@@H](NC(=O)[C@@H]1CCCN1C(=O)[C@H](CCCNC(=N)N)NC(=O)[C@H](CCCNC(=N)N)NC(=O)CNC(=O)[C@@H]1CCCN1C(=O)[C@H](CCCCN)NC(=O)[C@H](Cc1c[nH]cn1)NC(=O)[C@H](Cc1c[nH]c2ccccc12)NC(=O)[C@@H](NC(=O)[C@@H](NC(=O)[C@@H]1CCCN1C(=O)[C@H](CCCNC(=N)N)NC(=O)[C@H](CCCNC(=N)N)NC(=O)c1ccc2c(c1)C(=O)OC21c2ccc(O)cc2Oc2cc(O)ccc21)[C@@H](C)O)[C@@H](C)O)[C@@H](C)O)[C@@H](C)O)[C@@H](C)O)C(=O)N[C@@H](Cc1c[nH]c2ccccc12)C(=O)N[C@@H](Cc1c[nH]cn1)C(=O)N[C@@H](CCCCN)C(=O)N1CCC[C@H]1C(=O)O [FAM-LLL] (5FAM-RRPTTWHKPGRRPTTWHKPGRRPTTWHKP-OH; C-terminus assumed)
inhibitory performance on nonspecific absorption into untargeted normal organs [1]: satisfactorily maintained
absorption into pancreatic malignant tumors compared with the conventional PCPP11 ([1]; FIG. 11): approximately 6 fold

C[C@H](O)[C@@H](NC(=O)[C@@H](Cc1c[nH]c2ccccc12)NC(=O)[C@@H](Cc1c[nH]cn1)NC(=O)[C@@H](CCCCN)NC(=O)[C@H]1CCCN1C(=O)CNC(=O)[C@@H]1CCCN1C(=O)[C@H](CCCCN)NC(=O)[C@H](Cc1c[nH]cn1)NC(=O)[C@H](Cc1c[nH]c2ccccc12)NC(=O)[C@@H](NC(=O)[C@@H](NC(=O)[C@@H]1CCCN1C(=O)[C@H](CCCNC(=N)N)N(C)C(=O)[C@@H](N)CCCNC(=N)N)[C@@H](C)O)[C@@H](C)O)C(=O)N[C@@H](C(=O)N1CCC[C@@H]1C(=O)N[C@H](CCCNC(=N)N)C(=O)N[C@H](CCCNC(=N)N)C(=O)O)[C@H](C)O [No. 19, R-mR-PTTWHKP-G-pkhwttprr] (H-R[NMeR]PTTWHKPG[dP][dK][dH][dW][dT][dT][dP][dR][dR]-OH; N-terminus and C-terminus assumed)
degradation resistance compared with the stand-alone PCPP11 and the FAM-PCPP11 ([2]; 50% by mass human blood plasma): superior degradation resistance
degradation products observed ([2]; 50% by mass human blood plasma): no degradation products were observed
inhibitory performance on nonspecific absorption into untargeted normal organs [1]: maintained satisfactorily
absorption into pancreatic malignant tumors relative to the Ld peptide ([1]; FIG. 12B): approximately 1.4 fold

R-mR-PTTWHKP-C(-[FLC])-RRPTTWHKP [NmL-Cys(-FLC)-L]
fluorescence compared with FLC-PCPP11 [3]: stronger fluorescence

R-mR-PTTWHKP-C(-[FLC])-RRPTTWHKP-G-RRPTTWHKP [NmL-Cys(-FLC)-LL]
fluorescence compared with FLC-PCPP11 [3]: stronger fluorescence
fluorescence detected in all of the pancreatic cancer cells [3]: particularly strong fluorescence

RPTTWHKP-C(-[FLC])-RRPTTWHKP-C(-[FLC])-RRPTTWHKP [L(-R)-Cys(-FLC)-L-Cys(-FLC)-L]
fluorescence compared with FLC-PCPP11 [3]: stronger fluorescence
fluorescence detected in all of the pancreatic cancer cells [3]: particularly strong fluorescence

RPTTWHKP-G-RRPTTWHKP-C(-[FLC])-RRPTTWHKP (RPTTWHKPGRRPTTWHKPC(fluorescein)RRPTTWHKP) [L(-R)L-Cys(-FLC)-L]
fluorescence compared with FLC-PCPP11 [3]: stronger fluorescence
fluorescence detected in all of the pancreatic cancer cells [3]: particularly strong fluorescence

RPTTWHKP-G-RRPTTWHKP-K(-[FLC])-RRPTTWHKP (RPTTWHKPGRRPTTWHKPK(fluorescein)RRPTTWHKP) [L(-R)L-Lys(-FLC)-L]
fluorescence compared with FLC-PCPP11 [3]: stronger fluorescence
fluorescence detected in all of the pancreatic cancer cells [3]: particularly strong fluorescence

RRPTTWHKPGRRPTTWHKP [compound 9]
degradation resistance (proportion of the peptide retained without degradation) ([2]; 50% by mass human blood plasma, 5 min): 100%
remaining at 10 min [2, 4]: 84%
remaining at 20 min [2, 5]: 89%
remaining at 0.5 h [2, 6]: 91%
remaining at 1 h [2, 7]: 79%
remaining at 2 h [2, 8]: 65%
degradation resistance (proportion of the peptide retained without degradation) [2, 9]: 100%
proportion of peak area relative to the total peak area in the MALDI-TOFMS analysis ([2]; 5 min): 100%
proportion of each peptide when the peak area for the two or more peptides is deemed to be 100% ([2]; 20 min): 92.1%
proportion of peak area relative to the total peak area in the MALDI-TOFMS analysis ([2]; 20 min): 89%
proportion of each peptide when the peak area for the two or more peptides is deemed to be 100% ([2]; 30 min): (92.1%)
proportion of each peptide when the peak area for the two or more peptides is deemed to be 100% ([2]; 60 min): 82.1%
proportion of peak area relative to the total peak area in the MALDI-TOFMS analysis ([2]; 60 min): 79%
proportion of each peptide when the peak area for the two or more peptides is deemed to be 100% ([2]; 120 min): 70.0%
proportion of peak area relative to the total peak area in the MALDI-TOFMS analysis ([2]; 120 min): 65%
proportion of peak area relative to the total peak area in the MALDI-TOFMS analysis ([2]; Start): 100%

RRPTTWHKPGRRPTTWHKPGRRPTTWHKP [No. 12]
degradation resistance compared with the stand-alone PCPP11 and the FAM-PCPP11 ([2]; 50% by mass human blood plasma): superior degradation resistance
degradation products observed ([2]; 50% by mass human blood plasma): no degradation products were observed

RRPTTWHKPGRRPTTWHKPGRRPTTWHKP [Peptide 12]
remaining at 2 h [2, 8]: 100%

RRPTTWHKPGRRPTTWHKPGRRPTTWHKP [compound 12]
remaining at 5 min ([2]; 50% by mass human blood plasma, 5 min, read-out: degradation resistance (proportion of the peptide retained without degradation)): 100%
remaining at 10 min [2, 4]: 100%
remaining at 20 min [2, 5]: 100%
remaining at 0.5 h [2, 6]: 100%
remaining at 1 h [2, 7]: 100%
degradation resistance (proportion of the peptide retained without degradation) [2, 9]: 100%

[FLC]-R-mR-PTTWHKP-G-RRPTTWHKP [FLC-NmLL]
fluorescence compared with FLC-PCPP11 [3]: stronger fluorescence
